Measurements: US5466671A, “Apidaecin-type peptide antibiotics with improved activities and/or different antibacterial spectrum” (priority 1994, dated 1995)
Residues, ends and D or L forms follow the SMILES beside them.

Assays:
E. coli 11775 = test: Minimal inhibitory concentration (liquid culture); settings: a-b = highest concentration with growth - lowest without growth
Legionella pneumophila = format: cell-based; settings: agar plate, 50 nanomoles/well, 3 mm wells
M. morganii = test: Minimal inhibitory concentration (liquid culture); settings: inoculum 400 CFU/ml; a-b = highest concentration with growth - lowest without growth
[1] = tested on: Agrobacterium tumefaciens; test: Inhibition zone assay (agar plate); format: cell-based; settings: agar plate, 50 nanomoles/well, 3 mm wells
Salmonella typhimurium = test: Inhibition zone assay (agar plate); format: cell-based; settings: agar plate, 50 nanomoles/well, 3 mm wells
[2] = tested on: Escherichia coli (ATCC11775); test: Inhibition zone assay (agar plate); format: cell-based; settings: agar plate, 50 nanomoles/well, 3 mm wells
Enterobacter cloacae = test: Inhibition zone assay (agar plate); format: cell-based; settings: agar plate, 50 nanomoles/well, 3 mm wells
A. calcoaceticus = test: Minimal inhibitory concentration (liquid culture); settings: inoculum 16 × 10^6 CFU/ml; a-b = highest concentration with growth - lowest without growth
Haemophilus influenzae = test: Inhibition zone assay (agar plate); format: cell-based; settings: 50 nanomoles/well, 3 mm wells
Erwinia amylovora = test: Inhibition zone assay (agar plate); format: cell-based; settings: agar plate, 50 nanomoles/well, 3 mm wells
[3] = tested on: Acinetobacter calcoaceticus; test: Inhibition zone assay (agar plate); format: cell-based; settings: agar plate, 50 nanomoles/well, 3 mm wells
Pseudomonas syringae = test: Inhibition zone assay (agar plate); format: cell-based; settings: agar plate, 50 nanomoles/well, 3 mm wells
E. coli Apid^R = test: Minimal inhibitory concentration (liquid culture); format: cell-based; settings: a-b = highest concentration with growth - lowest without growth
Excerpt: For details see `Experimental Procedures`.

E. coli 25922 = test: Minimal inhibitory concentration (liquid culture); settings: inoculum 1100 CFU/ml; a-b = highest concentration with growth - lowest without growth
Y. enterocolitica = test: Minimal inhibitory concentration (liquid culture); settings: inoculum 5000 CFU/ml; a-b = highest concentration with growth - lowest without growth
Rhizobium meliloti = test: Inhibition zone assay (agar plate); format: cell-based; settings: 50 nanomoles/well, 3 mm wells
Yersinia enterocolitica = test: Inhibition zone assay (agar plate); format: cell-based; settings: 50 nanomoles/well, 3 mm wells
S. typhimurium = test: Minimal inhibitory concentration (liquid culture); settings: inoculum 8 × 10^6 CFU/ml; a-b = highest concentration with growth - lowest without growth
E. coli 23802 = test: Minimal inhibitory concentration (liquid culture); settings: inoculum 5000 CFU/ml; a-b = highest concentration with growth - lowest without growth
Shigella dysenteriae = format: cell-based; settings: agar plate, 50 nanomoles/well, 3 mm wells
Klebsiella pneumoniae = test: Inhibition zone assay (agar plate); format: cell-based; settings: agar plate, 50 nanomoles/well, 3 mm wells
Campylobacter jejuni = test: Inhibition zone assay (agar plate); format: cell-based; settings: 50 nanomoles/well, 3 mm wells
Morganella morganii = test: Inhibition zone assay (agar plate); format: cell-based; settings: 50 nanomoles/well, 3 mm wells
Escherichia coli (K514) = format: cell-based; settings: agar plate, 50 nanomoles/well, 3 mm wells
Francisella tularensis = format: cell-based; settings: agar plate, 50 nanomoles/well, 3 mm wells

| Compound | minimal inhibitory concentration (MIC) (E. coli 11775; inoculum 16 × 10^6 CFU/ml) | minimal inhibitory concentration (MIC) (E. coli 11775; inoculum 1200 CFU/ml) | minimal inhibitory concentration (MIC) (M. morganii) | inhibition zone diameter (number of plus signs) [1] | inhibition zone diameter (number of plus signs) (Salmonella typhimurium) | inhibition zone diameter (number of plus signs) [2] | inhibition zone diameter (number of plus signs) (Enterobacter cloacae) | minimal inhibitory concentration (MIC) (A. calcoaceticus) | inhibition zone diameter (number of plus signs) (Haemophilus influenzae) | inhibition zone diameter (number of plus signs) (Erwinia amylovora) | inhibition zone diameter (number of plus signs) [3] | inhibition zone diameter (number of plus signs) (Pseudomonas syringae) | minimal inhibitory concentration (MIC) (E. coli Apid^R; inoculum 12 × 10^6 CFU/ml) | minimal inhibitory concentration (MIC) (E. coli Apid^R; inoculum 1000 CFU/ml) | minimal inhibitory concentration (MIC) (E. coli 25922) | minimal inhibitory concentration (MIC) (Y. enterocolitica) | inhibition zone diameter (number of plus signs) (Rhizobium meliloti) | minimal inhibitory concentration (MIC) (S. typhimurium) | minimal inhibitory concentration (MIC) (E. coli 23802) | inhibition zone diameter (number of plus signs) (Klebsiella pneumoniae) | further results |
| --- | --- | --- | --- | --- | --- | --- | --- | --- | --- | --- | --- | --- | --- | --- | --- | --- | --- | --- | --- | --- | --- |
| CC[C@H](C)[C@H](NC(=O)[C@H](Cc1ccc(O)cc1)NC(=O)[C@@H](NC(=O)[C@@H]1CCCN1C(=O)[C@H](CCCNC(=N)N)NC(=O)[C@H](CC(N)=O)NC(=O)[C@H](C)N)C(C)C)C(=O)N1CCC[C@H]1C(=O)N1CCC[C@H]1C(=O)N1CCC[C@H]1C(=O)N[C@@H](CCCNC(=N)N)C(=O)N1CCC[C@H]1C(=O)N1CCC[C@H]1C(=O)N[C@@H](Cc1c[nH]cn1)C(=O)N1CCC[C@H]1C(=O)N[C@@H](CCCNC(=N)N)C(=O)N[C@@H](CC(C)C)C(=O)O [Bb+A] (H-ANRPVYIPPPRPPHPRL-OH) | 0.5 to 1 µg/mL | 0.05 to 0.1 µg/mL | 20 to 40 µg/mL | ++++ ((++++) 15-19 mm) | +++ ((+++) 10-14 mm) | ++++ ((++++) 15-19 mm) | +++ ((+++) 10-14 mm) | 2 to 10 µg/mL | +++ ((+++) 10-14 mm) | ++++ ((++++) 15-19 mm) | ++ ((++) 7-9 mm) | +++++ ((+++++) 20 or more min) | > 40 µg/mL | > 40 µg/mL | 0.5 to 1 µg/mL | 5 to 10 µg/mL | ++++ ((++++) 15-19 mm) | 0.5 to 1 µg/mL | 10 to 20 µg/mL | ++ ((++) 7-9 mm) | inhibition zone diameter (number of plus signs) (Legionella pneumophila): ++ ((++) 7-9 mm); inhibition zone diameter (number of plus signs) (Yersinia enterocolitica): +++ ((+++) 10-14 mm); inhibition zone diameter (number of plus signs) (Shigella dysenteriae): + +++ |
| CC[C@H](C)[C@H](NC(=O)[C@@H]1CCCN1C(=O)[C@H](C)NC(=O)[C@@H]1CCCN1C(=O)[C@H](CCCNC(=N)N)NC(=O)[C@@H]1CCCN1C(=O)[C@H](CCCCN)NC(=O)[C@H](CC(N)=O)NC(=O)[C@@H]1CCCN1C(=O)[C@H](CCCCN)NC(=O)CN)C(=O)N[C@@H](CCCCN)C(=O)N1CCC[C@H]1C(=O)N[C@@H](CCCNC(=N)N)C(=O)N1CCC[C@H]1C(=O)N1CCC[C@H]1C(=O)N[C@@H](Cc1c[nH]cn1)C(=O)N1CCC[C@H]1C(=O)N[C@@H](CCCNC(=N)N)C(=O)N[C@@H](CC(C)C)C(=O)O [Cd 2+, Gly--Lys--Pro--Asn--Lys--Pro--Arg--Pro--Ala--Pro--Ile--Lys--Pro--Arg--Pro--Pro--His--Pro--Arg--Leu] (H-GKPNKPRPAPIKPRPPHPRL-OH) | 0.1 to 0.5 µg/mL | 0.1 to 0.5 µg/mL | 1 to 5 µg/mL | +++ ((+++) 10-14 mm) | +++ ((+++) 10-14 mm) | +++ ((+++) 10-14 mm) | +++ ((+++) 10-14 mm) | 10 to 20 µg/mL | ++++ ((++++) 15-19 mm) | ++ ((++) 7-9 mm) | + ((+) 5-6 mm) | +++ ((+++) 10-14 mm) | 0.5 to 1.5 µg/mL | 0.5 to 1 µg/mL | 0.1 to 0.5 µg/mL | 10 to 20 µg/mL | ++++ ((++++) 15-19 mm) | 0.1 to 0.5 µg/mL | 0.1 to 0.5 µg/mL | ++ ((++) 7-9 mm) | inhibition zone diameter (number of plus signs) (Campylobacter jejuni): +++++ ((+++++) 20 or more min); inhibition zone diameter (number of plus signs) (Morganella morganii): ++ ((++) 7-9 mm); minimal inhibitory concentration (MIC) (E. coli Apid^R; inoculum 12 × 10^6 CFU/ml, listed as Cd2+): measurable activities; inhibition zone diameter (number of plus signs) (Escherichia coli (K514)): ++ ((++) 7-9 mm) |
| CC(C)C[C@H](NC(=O)[C@H](CCCNC(=N)N)NC(=O)[C@@H]1CCCN1C(=O)[C@H](Cc1c[nH]cn1)NC(=O)[C@@H]1CCCN1C(=O)[C@@H]1CCCN1C(=O)[C@H](CCCNC(=N)N)NC(=O)[C@@H]1CCCN1C(=O)[C@@H]1CCCN1C(=O)[C@@H](NC(=O)[C@H](CCC(N)=O)NC(=O)[C@H](CCC(N)=O)NC(=O)[C@@H]1CCCN1C(=O)[C@H](CCCNC(=N)N)NC(=O)[C@@H]1CCCN1C(=O)[C@H](CCCCN)NC(=O)[C@@H](N)CC(N)=O)C(C)C)C(=O)O [Yj -S, Asn--Lys--Pro--Arg--Pro--Gln--Gln--Val--Pro--Pro--Arg--Pro--Pro--His--Pro--Arg--Leu] (H-NKPRPQQVPPRPPHPRL-OH) | 0.1 to 0.5 µg/mL | 0.1 to 0.5 µg/mL | 1 to 5 µg/mL | ++ ((++) 7-9 mm) | +++ ((+++) 10-14 mm) | +++ ((+++) 10-14 mm) | ++ ((++) 7-9 mm) | 2 to 10 µg/mL | ++ ((++) 7-9 mm) | ++++ ((++++) 15-19 mm) | ++ ((++) 7-9 mm) | ++++ ((++++) 15-19 mm) | 5 to 10 µg/mL | 5 to 10 µg/mL | 0.1 to 0.5 µg/mL | 1 to 5 µg/mL | ++++ ((++++) 15-19 mm) | 0.1 to 0.5 µg/mL | 1 to 5 µg/mL | ++ ((++) 7-9 mm) | inhibition zone diameter (number of plus signs) (Francisella tularensis): + ((+) 5-6 mm); inhibition zone diameter (number of plus signs) (Yersinia enterocolitica): ++ ((++) 7-9 mm) |
